Experiments:
[1] = system: primary striatal medium spiny neurons; assay: cAMP accumulation in forskolin-stimulated striatal cultures; type: cell-based, rat; details: ratio of EC200 values in striatal cultures
Method: (§1) Striatal cultures were prepared as previously described (Ventimiglia et al., Eur. J. Neurosci. 7: 213-222, 1995). Briefly, striata (caudate nucleus and putamen) were dissected from E17 rats, dissociated to produce a single cell suspension, and plated at a density of 5×10^4 neurons/well in 96-well plates coated with poly-L-ornithine/laminin (Cat. No. 354657, BD Biosciences, Bedford, Mass.). The cells were plated in Neurobasal medium (Cat. No. 21103-049, Gibco BRL, Grand Island, N.Y.) with B27 supplements (Cat. No. 17504-010, Gibco BRL) and human recombinant brain-derived neurotrophic factor (BDNF) (100 ng/ml) (Cat. No. 248-BD, R & D Systems, Minneapolis, Minn.). Striatal medium spiny neurons comprised 50-60% of cells in these cultures, as confirmed by a GABA immunoreactivity protocol as previously described (Ventimiglia et al., 1995, supra). Expression of PDE10A mRNA in these cultures was confirmed by RNase protection assay, as further described below.
(§2) After approximately four days in vitro, the striatal cells were washed with Ca^2+/Mg^2+ free phosphate buffered saline (pH 7.4) and preincubated for an hour in a buffer containing Ca^2+/Mg^2+ free phosphate buffered saline, 30 mM HEPES (pH 7.4), 1 mM CaCl2, 1 mg/ml dextrose, and 5 mM MgCl2. The striatal cells were then exposed to one of the PDE inhibitors and incubated for 20 min. at 37° C. When measuring cGMP, the neurons were stimulated with sodium nitroprusside (SNP) (100 μM) for two min. after the 20 min. incubation with the PDE inhibitor.
(§3) The cells were lysed using a 9:1 combination of SPA direct screening Assay Buffer (0.05 M acetate with 0.01% sodium azide) and Buffer A (133 mg/ml dodecyltrimethylammonium bromide), and the lysates were frozen on dry ice.

[2] = system: primary striatal medium spiny neurons; assay: cGMP accumulation in SNP-stimulated striatal cultures; type: cell-based, rat; details: for EC200 (concentration giving a 2-fold increase in cGMP): concentration yielding a 2-fold increase in cGMP, SNP 100 μM for 2 min after 20 min inhibitor incubation
Method: as §1, §2, §3

[3] = system: PDE10A; details: cited from earlier work
[4] = system: PDE10A; assay: Papaverine inhibition of PDE10A, SPA-based PDE assay; type: biochemical
Method: Phosphodiesterases 7-11 were generated from full length recombinant clones transfected into SF9 cells as previously described (Fisher et al., Biochem. Biophys. Res. Comm. 246: 570-577, 1998; Fisher et al., J. Biol. Chem. 273: 15559-15564, 1998b; Soderling et al., PNAS 96: 7071-7076, 1999; Fawcett et al., PNAS 97: 3702-3707, 2000). The enzymes were purified by FPLC from the soluble fraction of cell lysates as described in Boolell et al., supra.
PDE activity was measured using a SPA-based method as previously described (Fawcett et al., 2000). Assays were conducted using a fixed amount of PDE10A enzyme in the presence of varying inhibitor concentrations. […] The final assay volume was adjusted to 100 μl with assay buffer (20 mM Tris-HCl pH 7.4, 5 mM MgCl2, 1 mg/ml bovine serum albumin).
Reactions were initiated with the addition of enzyme. Samples were incubated for 30-60 min. at 30° C. to give <30% substrate turnover and terminated with 50 μl yttrium silicate SPA beads (Amersham) containing 3 mM of the appropriate unlabelled cyclic nucleotide. Plates were re-sealed and shaken for 20 min.; the beads were then allowed to settle for 30 min. in the dark and then counted on a TopCount plate reader (Packard, Meriden, Conn.). Radioactivity units were converted to percent activity as compared to an uninhibited control (100%). […]

[5] = system: PDE7; details: substrate at 1/3 Km
[6] = system: PDE1; details: substrate at 1/3 Km
[7] = system: primary striatal medium spiny neurons; assay: cAMP accumulation in cultured primary striatal medium spiny neurons; details: Rattus norvegicus, Neuron
[8] = system: primary striatal medium spiny neurons; assay: cGMP accumulation in cultured primary striatal medium spiny neurons; type: cell-based, rat; details: 100 μM; SNP-stimulated

## COc1ccc(C2CNC(=O)C2)cc1OC1CCCC1 (stereo not shown) [Rolipram, rolipram]
[1]
  cAMP EC200/cGMP EC200: 0.09
[2]; Rattus norvegicus, Neuron
  EC200 (concentration giving a 2-fold increase in cGMP): 29.2 ± 10.3 µM
[2]; higher than cAMP EC200 of 2.5 μM
  concentration needed to double the rate of cGMP accumulation relative to cAMP EC200: 10 fold

## Nc1nc2c(ncn2[C@@H]2O[C@@H]3COP(=O)(O)O[C@H]3[C@H]2O)c(=O)[nH]1 [cGMP, cyclic guanine 3′5′-monophosphate]
[3]; Fujishige et al., 1999
  greater Vmax for cGMP over cAMP: approximately 5 fold
[3]; read-out: Km for cGMP
  Km: 3 µM

## COc1ccc(Cc2nccc3cc(OC)c(OC)cc23)cc1OC [Papaverine]
[4]
  mode of inhibition: competitive inhibitor
[5]
  IC50: 27 µM
[6]
  IC50: 37 µM
[2]; 100 μM papaverine, SNP 100 μM
  cGMP levels elevated over cultures stimulated with SNP alone (maximal effect): 5 fold
[2]; cells unstimulated by SNP or forskolin
  effect on cGMP levels in unstimulated cells: did not affect

## C=C[C@@]1(C)CC(=O)[C@]2(O)[C@@]3(C)[C@@H](O)CCC(C)(C)[C@@H]3[C@H](O)[C@H](OC(C)=O)[C@@]2(C)O1 [forskolin]
[7]; read-out: increase over basal cAMP
  fold induction at 1 µM: 2 to 3
[7]; read-out: per cent of the maximal cAMP response
  activation at 1 µM: 20 to 25%

## CCCOc1ccccc1-c1nc2nn[nH]c2c(=O)[nH]1 [Zaprinast, zaprinast]
[1]
  cAMP EC200/cGMP EC200: 1
[2]; Rattus norvegicus, Neuron
  EC200 (concentration giving a 2-fold increase in cGMP): > 100 µM
[2]
  EC200 (concentration giving a 2-fold increase in cGMP): 98.3 ± 10.3 µM

## CC(C)Cn1c(=O)n(C)c(=O)c2[nH]cnc21 [IBMX, 3-isobutyl-1-methylxanthine]
[1]
  cAMP EC200/cGMP EC200: 1.5
[2]; Rattus norvegicus, Neuron
  EC200 (concentration giving a 2-fold increase in cGMP): 19 µM
[2]
  EC200 (concentration giving a 2-fold increase in cGMP): 19.5 µM

## CCCOc1ccccc1-c1nc2nn[nH]c2c(=O)[nH]1 [Zaprinast]
[8]
  effect on level of cGMP: did not quite double the level of cGMP
